Values of other authors in patent US20120093932A1, “TARGETED SUSTAINED-RELEASE MICROSPHERE OF VASCULAR OCCLUSIVE AGENT CONTAINING SODIUM ALGINATE AND SORAFENIB, PRODUCTION METHOD AND USE THEREOF” (Beijing Shengyiyao Science & Technology Development Co., …, priority 2009, published 2012).
Values belong to the compound of their own block, whether it stands above or below them.

Legend:
[1] = not given; remark: listed apart in the source
[2] = oral single dose, solution containing 100 mg sorafenib
[3] = 400 mg orally twice a day; Phase I
[4] = oral administration

- solubility in alcohol (alcohol): slightly soluble
- solubility in aqueous solution (aqueous solution, becomes higher a little bit under strongly acid condition): low
- solubility in polyethylene glycerol 400 (polyethylene glycerol 400): can be dissolved
Structure (SMILES): CNC(=O)c1cc(Oc2ccc(NC(=O)Nc3ccc(Cl)c(C(F)(F)F)c3)cc2)ccn1.Cc1ccc(S(=O)(=O)O)cc1 [sorafenib tosylate]

Structure (SMILES): [O-][n+]1ccccc1 [pyridine N-Oxide]
- role in vitro compared to sorafenib [1]: plays a similar role to sorafenib

- excreted as glucuronic acid metabolic products in urine [2]: 19%
- excreted unchanged (faeces) ([2]; within 14 days): 15%
- sorafenib excreted in the faeces ([2]; within 14 days): 77%
Structure (SMILES): CNC(=O)c1cc(Oc2ccc(NC(=O)Nc3ccc(Cl)c(C(F)(F)F)c3)cc2)ccn1 [sorafenib, 4-{4-[3-(4-chloro-3-trifluoro-phenyl)-ureido]-phenoxyl}-pyridine-2-carboxylic methylamine]
- tolerability and effectiveness [3]: tolerated and effective
- side effects: diarrhea [4]: 58%
- side effects: gastrointestinal response [4]: 95%
- side effects: indigestion accompanied by appetite loss [4]: 47%
- side effects: nausea [4]: 30%
- side effects: vomiting [4]: 24%
